system: HCT116 (human colon cancer); experiment: CCK-8 cell viability assay on HCT116 human colon cancer cells; type: cell-based; details: HCT-116, 48 h, HCT116 cells, 48 hours compound incubation, CCK-8, read-out: EC50 (uM, HCT116)
Method: The plate is incubated for 48 hours.

EC50 [µM]	SMILES
3	Cc1cccc(Cn2c(=O)[nH]c3c(c2=O)CN(Cc2ccccc2)CC3)c1 [Example 2, 6-benzyl-3-[(3-methylphenyl)methyl]-1H, 2H, 3H, 4H, 5H, 6H, 7H, 8H-pyrido[4,3-d]pyrimidine-2,4-dione]
2.7	O=c1[nH]c2c(c(=O)n1Cc1ccc(Cl)cc1)CN(Cc1ccccc1)CC2 [Example 5, 6-benzyl-3-(4-chlorobenzyl)-5,6,7,8-tetrahydropyrido[4,3-d]pyrimidine-2,4(1H,3H)-dione]
2.6	O=c1[nH]c2c(c(=O)n1Cc1ccc(C(F)(F)F)cc1)CN(Cc1ccccc1)CC2 [Example 8, 3-(4-(trifluoromethyl)benzyl)-6-benzyl-5,6,7,8-tetrahydropyrido[4,3-d]pyrimidine-2,4(1H,3H)-dione]
0.31	Cn1c2c(c(=O)n(Cc3ccc(C(F)(F)F)cc3)c1=O)CN(Cc1ccccc1)CC2 [Example 9]
7.1	CC(C)n1c2c(c(=O)n(Cc3ccc(C(F)(F)F)cc3)c1=O)CN(Cc1ccccc1)CC2 [Example 10, 3-(4-(trifluoromethyl)benzyl)-6-benzyl-5,6,7,8-tetrahydro-1-isopropylpyrido[4,3-d]pyrimidine-2,4(1H,3H)-dione]
2.5	CCn1c2c(c(=O)n(Cc3cccc(C(F)(F)F)c3)c1=O)CN(Cc1ccccc1)CC2 [Example 14, 3-(3-(trifluoromethyl)benzyl)-6-benzyl-1-ethyl-5,6,7,8-tetrahydropyrido[4,3-d]pyrimidine-2,4(1H,3H)-dione]
1.4	C#Cc1cccc(CN2CCc3c(c(=O)n(Cc4ccc(C(F)(F)F)cc4)c(=O)n3C)C2)c1 [Example 18, 6-(3-ethynylbenzyl)-1-methyl-3-(4-(trifluoromethyl)benzyl)-5,6,7,8-tetrahydropyrido[4,3-d]pyrimidine-2,4(1H,3H)-dione]
0.1	Cn1c2c(c(=O)n(Cc3ccc(C(F)(F)F)cc3)c1=O)CN(Cc1cccc(Cl)c1)CC2 [Example 22, 6-(3-chlorobenzyl)-1-methyl-3-(4-(trifluoromethyl)benzyl)-5,6,7,8-tetrahydropyrido[4,3-d]pyrimidine-2,4(1H,3H)-dione]
0.5	Cn1c2c(c(=O)n(Cc3ccc(C(F)(F)F)cc3)c1=O)CN(Cc1cccc(C#N)c1)CC2 [Example 26, 3-((1-methyl-2,4-dioxo-3-(4-(trifluoromethyl)benzyl)-1,2,3,4,7,8-hexahydropyrido[4,3-d]pyrimidin-6(5H)-yl)methyl)benzonitrile]

The next lines start with the molecule.

SMILES	EC50 [µM]
Cc1cccc(Cn2c(=O)c3c(n(C)c2=O)CCN(Cc2ccccc2)C3)c1 [Example 3, 6-benxyl-1-methyl-3-[(3-methylphenyl)methyl]-1H, 2H, 3H, 4H, 5H, 6H, 7H, 8H-pyrido[4,3-d]pyrimidine-2,4-dione]	0.18
Cc1cccc(Cn2c(=O)c3c(n(C(C)C)c2=O)CCN(Cc2ccccc2)C3)c1 [Example 4, 6-benzyl-1-isopropyl-3-(3-methylbenzyl)-5,6,7,8-tetrahydropyrido[4,3-d]pyrimidine-2,4(1H,3H)-dione]	2
Cn1c2c(c(=O)n(Cc3ccc(Cl)cc3)c1=O)CN(Cc1ccccc1)CC2 [Example 6, 6-benzyl-3-(4-chlorobenzyl)-1-methyl-5,6,7,8-tetrahydropyrido[4,3-d]pyrimidine-2,4(1H,3H)-dione]	0.26
CC(C)n1c2c(c(=O)n(Cc3ccc(Cl)cc3)c1=O)CN(Cc1ccccc1)CC2 [Example 7, 6-benzyl-3-(4-chlorobenzyl)-1-isopropyl-5,6,7,8-tetrahydropyrido[4,3-d]pyrimidine-2,4(1H,3H)-dione]	6.6
Cn1c2c(c(=O)n(Cc3cccc(Cl)c3)c1=O)CN(Cc1ccccc1)CC2 [Example 15, 3-(3-chlorobenzyl)-6-benzyl-5,6,7,8-tetrahydro-1-methylpyrido[4,3-d]pyrimidine-2,4(1H,3H)-dione]	3
Cn1c2c(c(=O)n(Cc3cccc(Br)c3)c1=O)CN(Cc1ccccc1)CC2 [Example 17, 6-benzyl-3-(3-bromobenzyl)-1-methyl-5,6,7,8-tetrahydropyrido[4,3-d]pyrimidine-2,4(1H,3H)-dione]	1.1
C#Cc1cccc(CN2CCc3c(c(=O)n(Cc4ccccc4C)c(=O)n3C)C2)c1 [Example 19, 6-(3-ethynylbenzyl)-1-methyl-3-(2-methylbenzyl)-5,6,7,8-tetrahydropyrido[4,3-d]pyrimidine-2,4(1H,3H)-dione]	1.5
C#Cc1cccc(CN2CCc3c(c(=O)n(Cc4cccc(C)c4)c(=O)n3C)C2)c1 [Example 20, 6-(3-ethynylbenzyl)-1-methyl-3-(3-methylbenzyl)-5,6,7,8-tetrahydropyrido[4,3-d]pyrimidine-2,4(1H,3H)-dione]	1
C#Cc1cccc(CN2CCc3c(c(=O)n(Cc4ccc(Cl)cc4)c(=O)n3C)C2)c1 [Example 21, 3-(4-chlorobenzyl)-6-(3-ethynylbenzyl)-1-methyl-5,6,7,8-tetrahydropyrido[4,3-d]pyrimidine-2,4(1H,3H)-dione]	1.4
Cn1c2c(c(=O)n(Cc3ccc4c(c3)OCO4)c1=O)CN(Cc1ccccc1)CC2 [Example 23, 3-(benzo[d][1,3]dioxol-5-ylmethyl)-6-benzyl-1-methyl-5,6,7,8-tetrahydropyrido[4,3-d]pyrimidine-2,4(1H,3H)-dione]	2.5
Cn1c2c(c(=O)n(Cc3ccc(Br)cc3)c1=O)CN(Cc1cccc(C#N)c1)CC2 [Example 24, 3-((3-(4-bromobenzyl)-1-methyl-2,4-dioxo-1,2,3,4,7,8-hexahydropyrido[4,3-d]pyrimidin-6(5H)-yl)methyl)benzonitrile]	0.022
CCn1c2c(c(=O)n(Cc3ccc(C(F)(F)F)cc3)c1=O)CN(Cc1cccc(C#N)c1)CC2 [Example 27, 3-((1-ethyl-2,4-dioxo-3-(4-(trifluoromethyl)benzyl)-1,2,3,4,7,8-hexahydropyrido[4,3-d]pyrimidin-6(5H)-yl)methyl)benzonitrile]	1.9
CCn1c2c(c(=O)n(Cc3ccc(Cl)cc3)c1=O)CN(Cc1cccc(C#N)c1)CC2 [Example 28, 3-((3-(4-chlorobenzyl)-1-ethyl-2,4-dioxo-1,2,3,4,7,8-hexahydropyrido[4,3-d]pyrimidin-6(5H)-yl)methyl)benzonitrile]	0.21

same assay, conditions: HCT-116, 48 h, read-out: EC50 (uM, HCT116)

SMILES	EC50 [µM]
Cn1c2c(c(=O)n(Cc3cccc(C(F)(F)F)c3)c1=O)CN(Cc1ccccc1)CC2 [Example 13]	1.4
Cn1c2c(c(=O)n(Cc3ccc(Cl)cc3)c1=O)CN(Cc1cccc(C#N)c1)CC2 [Example 25, 3-((3-(4-chlorobenzyl)-1-methyl-2,4-dioxo-1,2,3,4,7,8-hexahydropyrido[4,3-d]pyrimidin-6(5H)-yl)methyl)benzonitrile]	0.74
Cc1ccccc1CN1C(=O)C2=C(CCN(Cc3ccccc3)C2)N2CCN=C12 [TIC10, 11-benzyl-7-[(2-methylphenyl)methyl]-2,5,7,11-tetraazatricyclo[7.4.0.0^2,6]trideca-1(9),5-dien-8-one, reference compound]	2.8

system: SUM159; experiment: CCK-8 cell viability assay on SUM159 human breast cancer cells; details: Homo sapiens, SUM159, 72 h, read-out: EC50 (uM, SUM159)
Method: The plate was incubated for 24 hours in a humidified incubator (37° C., 5% CO2). The compound from the present invention, at the appropriate test concentrations, are added to the culture media of the plate. The plate is incubated for 48 hours. CCK-8 (10 ul, see below) is added to each well. The plate is incubated from 1-4 h under conditions as described above, and the absorbance at 450 nm and 650 nm is measured with a plate reader.
Cell Counting was by CCK-8 using WST-8 (2-(2-methoxy-4-nitrophenyl)-3-(4-nitrophenyl)-5-(2,4-disulfophenyl)-2H-tetrazolium, monosodium salt), which produces a water-soluble formazan dye upon bioreduction in the presence of an electron carrier, 1-Methoxy PMS. CCK-8 solution is added directly to the cells. WST-8 is bioreduced by cellular dehydrogenases to an orange formazan product that is soluble in tissue culture medium. The amount of formazan produced is directly proportional to the number of living cells.

SMILES	EC50 [µM]
Cn1c2c(c(=O)n(Cc3ccc(Cl)cc3)c1=O)CN(Cc1cccc(C#N)c1)CC2 [Example 25, 3-((3-(4-chlorobenzyl)-1-methyl-2,4-dioxo-1,2,3,4,7,8-hexahydropyrido[4,3-d]pyrimidin-6(5H)-yl)methyl)benzonitrile]	0.014
Cn1c2c(c(=O)n(Cc3ccc(C(F)(F)F)cc3)c1=O)CN(Cc1cccc(C#N)c1)CC2 [Example 26, 3-((1-methyl-2,4-dioxo-3-(4-(trifluoromethyl)benzyl)-1,2,3,4,7,8-hexahydropyrido[4,3-d]pyrimidin-6(5H)-yl)methyl)benzonitrile]	0.017
Cc1ccccc1CN1C(=O)C2=C(CCN(Cc3ccccc3)C2)N2CCN=C12 [TIC10, 11-benzyl-7-[(2-methylphenyl)methyl]-2,5,7,11-tetraazatricyclo[7.4.0.0^2,6]trideca-1(9),5-dien-8-one, reference compound]	1.4

same assay, conditions: SUM159 cells, 72 hours, versus TIC10

SMILES	potency on human cancer lines in comparison to TIC10
Cn1c2c(c(=O)n(Cc3ccc(Cl)cc3)c1=O)CN(Cc1cccc(C#N)c1)CC2 [Example 25, 3-((3-(4-chlorobenzyl)-1-methyl-2,4-dioxo-1,2,3,4,7,8-hexahydropyrido[4,3-d]pyrimidin-6(5H)-yl)methyl)benzonitrile]	significant and unanticipated improvements in potency
Cn1c2c(c(=O)n(Cc3ccc(C(F)(F)F)cc3)c1=O)CN(Cc1cccc(C#N)c1)CC2 [Example 26, 3-((1-methyl-2,4-dioxo-3-(4-(trifluoromethyl)benzyl)-1,2,3,4,7,8-hexahydropyrido[4,3-d]pyrimidin-6(5H)-yl)methyl)benzonitrile]	significant and unanticipated improvements in potency

Reference: patent publication US11091477B2 (Madera Therapeutics, LLC, priority 2016, dated 2021)
